In PubChem BioAssay (NCI):
“And” between values parts separate entries of the source, which are not always exact repeats. Equal entries are not always repeated.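 Protocol summary: plate cells (96-well), add compound at 5 concentrations, incubate 48 h, interpolate endpoints linearly. GI50 = concentration required for 50% inhibition of growth. Definition used: TGI = concentration required for complete inhibition of growth.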

Tests used:
Assay in all cases: growth of human tumour cells (NCI), 48 h
A498 renal = system: A498 renal
DMS 114 small cell lung = system: DMS 114 small cell lung
EKVX NSCLC = system: EKVX NSCLC
HOP-62 NSCLC = system: HOP-62 NSCLC
M19-MEL melanoma = system: M19-MEL melanoma
SNB-19 CNS = system: SNB-19 CNS
TK-10 renal = system: TK-10 renal
UO-31 renal = system: UO-31 renal
SK-MEL-2 melanoma = system: SK-MEL-2 melanoma
NCI-H522 lung = system: NCI-H522 lung

| SMILES | TGI (A498 renal) [µM] | TGI (DMS 114 small cell lung) [µM] | TGI (EKVX NSCLC) | TGI (HOP-62 NSCLC) | TGI (M19-MEL melanoma) [µM] | TGI (SNB-19 CNS) [µM] | TGI (TK-10 renal) [µM] | TGI (UO-31 renal) | TGI (SK-MEL-2 melanoma) | TGI (NCI-H522 lung) | GI50 (A498 renal) [µM] | GI50 (EKVX NSCLC) [µM] | GI50 (HOP-62 NSCLC) [µM] | GI50 (NCI-H522 lung) [µM] | GI50 (SK-MEL-2 melanoma) [µM] | GI50 (SNB-19 CNS) [µM] | GI50 (TK-10 renal) [µM] | GI50 (UO-31 renal) [µM] | GI50 (M19-MEL melanoma) [µM] | GI50 (DMS 114 small cell lung) [µM] |
| --- | --- | --- | --- | --- | --- | --- | --- | --- | --- | --- | --- | --- | --- | --- | --- | --- | --- | --- | --- | --- |
| O=C(O)CCSC(=O)Nc1cccc2ccccc12 | > 100 | > 100 | > 100 µM | > 100 µM | > 100 | > 100 | > 100 | > 100 µM |  |  |  |  |  |  |  |  |  |  |  |  |
| COc1ccccc1NC(=O)C1=C(C)NC(C)=C(C(=O)Nc2ccccc2OC)C1c1ccccc1Cl | > 100 | > 100 | > 100 µM | > 100 µM | > 100 | > 100 | > 100 | > 100 µM | > 100 µM |  |  |  |  |  |  |  |  |  |  |  |
| CC(=O)NCc1c(C(N)=O)ncn1Cc1ccccc1 | > 100 | > 100 | > 100 µM | > 100 µM | > 100 | > 100 | > 100 |  |  |  |  |  |  |  |  |  |  |  |  |  |
| O=[N+]([O-])c1cc(I)cc(/C=N/NS(=O)(=O)c2ccc(Cl)cc2)c1O | 58.8 |  | 83 µM | 53.6 µM | 56.9 | > 100 | 74.4 | 36.8 µM | 42.7 µM | 33.2 µM |  |  |  |  |  |  |  |  |  |  |
| COc1ccc(-c2cc(=O)c3cc(C)c(C)c(C(=O)O)c3o2)cc1 | > 100 | 45.6 | > 100 µM | > 100 µM | > 100 | > 100 |  | > 100 µM | > 100 µM |  |  |  |  |  |  |  |  |  |  |  |
| CCOC(=O)CNC(=O)OCc1ccccc1 | > 100 | > 100 |  | > 100 µM | > 100 | > 100 | > 100 | > 100 µM | > 100 µM | > 100 µM |  |  |  |  |  |  |  |  |  |  |
| O=C(C=Nc1ccccc1S)c1ccco1 | > 100 | 31 | 30.2 µM | 15.2 µM | 27 | 16.3 | 33.4 | 6.77 µM | 33.1 µM | 28.8 µM | > 100 |  |  |  |  |  |  |  |  |  |
| COc1cc(/C=C2\NC(=O)C3Cc4c(OC)c(C)c(OC)c(OC)c4C2N3C)c(OC)c(C)c1OC (stereo not given) | > 100 | > 100 | > 100 µM | > 100 µM | > 100 | > 100 | > 100 | > 100 µM |  | > 100 µM |  |  |  |  |  |  |  |  |  |  |
| CC1OC(CC(=O)O)Cc2c1c(O)c1c(O)cc(-c3cc(=O)c4c(=O)c5c(c(=O)c=4c3=O)CC(CC(=O)O)OC5C)c(O)c1c2O (stereo not given) | 58.9 | 40 | 18.3 µM and 74.5 µM | > 100 µM | 49 | > 100 | > 93 | > 64.5 µM | 48.2 µM and 62.5 µM | 18.9 µM and 64.7 µM |  | 26.1 | 71 | 17.8 | 27.7 | 66.6 | 34 | 30.3 |  |  |
| CC(=O)OC1=C2CC[C@@H]3C(CC[C@@]4(C)C3CC[C@@H]4OC(C)=O)[C@@]2(C)CC(C#N)C1=O (stereo not given in full) | 9.59 | 37.1 | > 100 µM | > 100 µM |  | > 100 | > 100 | > 100 µM | 59.4 µM |  |  |  |  |  |  |  |  |  |  |  |
| CN=C1CN=C(OP(=O)(N2CCOCC2)N2CCOCC2)c2cc(Cl)ccc2N1 | > 100 | > 100 | > 100 µM |  | > 100 | > 100 | > 100 | > 100 µM | > 100 µM | > 100 µM |  |  |  |  |  |  |  |  |  |  |
| CC[O-].CC[O-].O=C([CH-]C(=O)c1ccccc1)CCCCCCC(=O)[CH-]C(=O)c1ccccc1.[Ti+4] | > 100 |  | > 100 µM | > 100 µM | > 100 | > 100 | > 100 | > 100 µM | > 100 µM |  | > 100 | > 100 | > 100 |  | > 100 | > 100 | > 100 | > 100 | > 100 |  |
| [Co].[O-]c1cccnc1C=Nc1ccccc1.[OH3+] | > 100 | > 100 | > 100 µM |  | > 100 | > 100 | > 100 | > 100 µM | > 100 µM | > 100 µM | > 100 | > 100 |  | 39.3 | > 100 | > 100 | > 100 | 56.2 | > 100 | > 100 |
| CCC[CH2][Sn]1([CH2]CCC)[O]CC[S]1 |  | 1.26 | 2.1 µM | 3.59 µM | 2.75 | 1.6 | 1.39 | 2.54 µM | 1.01 µM | 0.187 µM |  | 0.749 | 2.09 | 0.041 | 0.298 | 0.446 | 0.508 | 1.28 | 0.475 | 0.272 |
| CO/C=C(\Br)c1ccc2c(c1)OCO2 | > 100 | > 100 | > 100 µM | > 100 µM | > 100 | > 100 | > 100 | > 100 µM | > 100 µM | > 100 µM |  |  |  |  |  |  |  |  |  |  |
| CC(=O)Nc1ccc(OC(C)=O)cc1 | 0.0488 |  | > 78.7 µM | 14.7 µM |  | > 100 | > 100 | 26 µM | 8.54 µM | < 0.01 µM | < 0.01 | 3 | < 0.01 | < 0.01 | < 0.01 | < 0.0126 | 10.7 | 0.252 |  |  |
| CN[C@@H](Cc1cccc2ccccc12)C(=O)N[C@@H](CC(C)C)B(O)O | 0.0452 |  | 0.209 µM and 0.0476 µM | 0.129 µM and 0.0368 µM |  |  | 0.0821 | 0.059 µM and < 0.0131 µM | 0.0599 µM and 0.104 µM | < 0.0103 µM | 0.00553 | 0.0277 | 0.0371 |  | 0.0237 | 0.0356 | 0.0256 | 0.0179 |  |  |
| COc1c(C)c(OC)c(C(=O)CC(C)C)c(OC)c1C | > 100 |  | > 100 µM | > 100 µM |  | > 100 | > 100 | > 100 µM | > 100 µM | > 100 µM |  |  |  |  |  |  |  |  |  |  |
| CCc1cccc(NC(=O)Nc2ccc(Oc3ccc4nc(NC(=O)OC)[nH]c4c3)cc2)c1 | 17.8 |  | > 25 µM | 11 µM |  | > 25 | > 19.8 | > 25 µM | 12.3 µM | 14.8 µM | 3.2 | > 23.9 | 3.1 | 0.921 | 2.94 | 10.1 | 6.61 | > 25 |  |  |
